Measured values from patent publication US8722727B2, “Antifungal agents” (Seynix, Inc., priority 2008, dated 2014).

Biological target: T1, glucan synthase (GS) (Candida albicans, UniProt O13428)
T1 construct: Extraction of GS activity from membranes was performed at a protein concentration of 5 mg/mL in extraction buffer; endogenous in cells; host or cells: Candida albicans MY1055 (membrane fraction, detergent extraction, product entrapment)
Test: Glucan synthase inhibition (polymerization assay, 96-well)
Assay type: biochemical
Conditions: glucan synthase prepared from Candida albicans MY1055; 60 min incubation at 22° C.; read-out: Candida Albicans GS IC50 (ng/mL) (converted)
Method in brief: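 Partially purified membrane glucan synthase from C. albicans MY1055, 60 min at 22° C with 0.5 mM 3H-UDPG, 25 μM GTP-γ-S, pH 7.5 HEPES, 25 mM KF. TCA-precipitated glucan filtered and scintillation counted; IC50 (ng/mL) from sigmoidal fit of duplicates over 3-fold dilutions.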

T1 sequence (O13428 1-1897): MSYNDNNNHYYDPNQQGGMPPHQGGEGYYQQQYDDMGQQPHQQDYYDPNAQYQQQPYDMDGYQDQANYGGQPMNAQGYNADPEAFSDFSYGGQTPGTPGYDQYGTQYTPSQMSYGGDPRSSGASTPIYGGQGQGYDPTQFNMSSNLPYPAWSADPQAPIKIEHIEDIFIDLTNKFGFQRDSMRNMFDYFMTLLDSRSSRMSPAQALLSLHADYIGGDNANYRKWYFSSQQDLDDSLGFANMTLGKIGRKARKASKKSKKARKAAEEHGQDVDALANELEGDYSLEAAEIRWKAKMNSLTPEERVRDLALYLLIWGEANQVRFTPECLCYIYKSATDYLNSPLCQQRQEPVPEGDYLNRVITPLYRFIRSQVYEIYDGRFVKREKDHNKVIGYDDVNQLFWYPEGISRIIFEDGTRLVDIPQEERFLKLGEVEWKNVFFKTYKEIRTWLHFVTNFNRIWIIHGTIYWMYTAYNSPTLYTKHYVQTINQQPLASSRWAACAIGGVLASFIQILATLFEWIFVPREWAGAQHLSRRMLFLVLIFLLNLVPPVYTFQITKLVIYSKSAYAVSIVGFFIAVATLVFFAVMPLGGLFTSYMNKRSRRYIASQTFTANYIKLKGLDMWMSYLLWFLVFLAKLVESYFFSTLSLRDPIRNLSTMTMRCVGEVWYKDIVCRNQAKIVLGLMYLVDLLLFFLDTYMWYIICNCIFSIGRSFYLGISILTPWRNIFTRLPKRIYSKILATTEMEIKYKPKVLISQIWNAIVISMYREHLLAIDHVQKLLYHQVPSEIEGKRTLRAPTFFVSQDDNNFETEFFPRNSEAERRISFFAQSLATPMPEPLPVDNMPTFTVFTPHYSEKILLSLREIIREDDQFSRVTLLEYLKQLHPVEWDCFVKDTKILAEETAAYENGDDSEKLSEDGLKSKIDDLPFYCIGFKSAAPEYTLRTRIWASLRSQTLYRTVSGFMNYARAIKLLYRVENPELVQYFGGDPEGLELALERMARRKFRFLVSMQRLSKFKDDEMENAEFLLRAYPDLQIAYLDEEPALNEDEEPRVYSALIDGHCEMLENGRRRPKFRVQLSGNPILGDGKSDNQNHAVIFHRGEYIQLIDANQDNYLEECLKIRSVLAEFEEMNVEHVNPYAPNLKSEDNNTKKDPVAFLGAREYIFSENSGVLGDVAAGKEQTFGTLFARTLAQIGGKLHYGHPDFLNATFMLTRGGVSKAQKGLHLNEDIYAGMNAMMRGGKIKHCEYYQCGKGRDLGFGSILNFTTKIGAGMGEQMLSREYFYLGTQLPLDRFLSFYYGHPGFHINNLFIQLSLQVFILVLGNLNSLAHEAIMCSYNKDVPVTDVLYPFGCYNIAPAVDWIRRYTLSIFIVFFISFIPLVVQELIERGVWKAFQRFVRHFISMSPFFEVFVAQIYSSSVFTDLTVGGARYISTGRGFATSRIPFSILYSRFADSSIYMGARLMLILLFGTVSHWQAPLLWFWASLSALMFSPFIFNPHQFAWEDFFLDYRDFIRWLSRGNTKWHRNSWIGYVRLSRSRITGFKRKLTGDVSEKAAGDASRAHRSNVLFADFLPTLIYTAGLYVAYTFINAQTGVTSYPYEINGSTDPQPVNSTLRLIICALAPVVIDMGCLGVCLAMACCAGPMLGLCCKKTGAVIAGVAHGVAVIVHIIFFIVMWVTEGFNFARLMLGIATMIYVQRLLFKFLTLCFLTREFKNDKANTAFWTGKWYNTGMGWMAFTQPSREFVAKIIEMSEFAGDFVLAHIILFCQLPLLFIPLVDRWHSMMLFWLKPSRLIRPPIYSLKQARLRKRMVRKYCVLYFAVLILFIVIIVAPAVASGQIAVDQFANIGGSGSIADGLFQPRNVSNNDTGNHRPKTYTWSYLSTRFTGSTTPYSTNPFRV
T1 sequence (O42825 1-195 partner limits assumed): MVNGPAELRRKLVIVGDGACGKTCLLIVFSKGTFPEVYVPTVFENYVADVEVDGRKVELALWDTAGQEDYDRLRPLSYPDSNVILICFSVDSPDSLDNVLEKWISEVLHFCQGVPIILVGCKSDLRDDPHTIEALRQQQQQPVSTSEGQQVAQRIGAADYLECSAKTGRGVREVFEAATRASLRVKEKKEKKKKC

SMILES | IC50 [nM]
CCCCCC(C)(CO[C@H]1[C@H](n2nnc(N)n2)C[C@@]23COC[C@]1(C)[C@@H]2CC[C@H]1C3=CC[C@@]2(C)[C@H](C(=O)O)[C@@](C)([C@H](C)C(C)C)CC[C@]12C)NCCC (stereo partly drawn) [Example 120, (1S,4aR,6aS,7R,8R,10aR,10bR,12aR,14R,15R)-14-(5-amino-2H-tetrazol-2-yl)-8-[(1R)-1,2-dimethylpropyl]-15-[[2-methyl-2-(propylamino)heptyl]oxy]-1,6,6a,7,8,9,10,10a,10b,11,12,12a-dodecahydro-1,6a,8,10a-tetramethyl-4H-1,4a-propano-2H-phenanthro[1,2-c]pyran-7-carboxylic acid] | 60.7
CC(C)[C@@H](C)[C@@]1(C)CC[C@]2(C)[C@H]3CC[C@@H]4[C@@]5(COC[C@@]4(C)[C@@H](OCC(C)(N)CCO)[C@H](n4nnc(N)n4)C5)C3=CC[C@@]2(C)[C@@H]1C(=O)O (stereo partly drawn) [Example 122, (1S,4aR,6aS,7R,8R,10aR,10bR,12aR,14R,15R)-15-(2-amino-4-hydroxy-2-methylbutoxy)-14-(5-amino-2H-tetrazol-2-yl)-8-[(1R)-1,2-dimethylpropyl]-1,6,6a,7,8,9,10,10a,10b,11,12,12a-dodecahydro-1,6a,8,10a-tetramethyl-4H-1,4a-propano-2H-phenanthro[1,2-c]pyran-7-carboxylic acid] | 16.7
CCN(C)C(C)(CCOC)CO[C@H]1[C@H](n2nnc(N)n2)C[C@@]23COC[C@]1(C)[C@@H]2CC[C@H]1C3=CC[C@@]2(C)[C@H](C(=O)O)[C@@](C)([C@H](C)C(C)C)CC[C@]12C (stereo partly drawn) [Example 127, (1S,4aR,6aS,7R,8R,10aR,10bR,12aR,14R,15R)-14-(5-amino-2H-tetrazol-2-yl)-8-[(1R)-1,2-dimethylpropyl]-15-[2-(ethylmethylamino)-4-methoxy-2-methylbutoxy]-1,6,6a,7,8,9,10,10a,10b,11,12,12a-dodecahydro-1,6a,8,10a-tetramethyl-4H-1,4a-propano-2H-phenanthro[1,2-c]pyran-7-carboxylic acid] | 30.9
CNC(C)(CCF)CO[C@H]1[C@H](n2nnc(N)n2)C[C@@]23COC[C@]1(C)[C@@H]2CC[C@H]1C3=CC[C@@]2(C)[C@H](C(=O)O)[C@@](C)([C@H](C)C(C)C)CC[C@]12C (stereo partly drawn) [Example 129, (1S,4aR,6aS,7R,8R,10aR,10bR,12aR,14R,15R)-14-(5-amino-2H-tetrazol-2-yl)-8-[(1R)-1,2-dimethylpropyl]-15-[4-fluoro-2-methyl-2-(methylamino)butoxy]-1,6,6a,7,8,9,10,10a,10b,11,12,12a-dodecahydro-1,6a,8,10a-tetramethyl-4H-1,4a-propano-2H-phenanthro[1,2-c]pyran-7-carboxylic acid] | 7.43
